Laboratory results as given in EP0110298A1, “Acridanone derivatives” (F. HOFFMANN-LA ROCHE & CO. Aktiengesellschaft, priority 1982, dated 1984).
Where a name gives a salt, the structure may show the parent alone.

Assays:
[1] = Acute toxicity (DL50) after single oral administration to mice; conditions: mouse, in vivo, read-out: DL50 in mg/kg p.o.
Description: In der nachfolgenden Tabelle werden die Resultate dargestellt, welche mit einigen repräsentativen erfindungsgemässen Substanzen erhalten worden sind. Angegeben werden für jede der darin figurierenden Verbindung die VD50 in mg/kg p.o. und, für einige dieser Verbindungen, die DL50 in mg/kg bei einmaliger oraler Verabreichung an Mäusen.

[2] = test system: Schistosoma mansoni; assay: Schistosomicidal (vermicidal) activity in infected mice, single oral treatment, worm count reduction; type: in vivo; conditions: 456 h, Albino-Mäuse infected s.c. with cercariae of a Liberia-Stamm of Schistosoma mansoni, single peroral treatment 46 days after infection, section after 19 days, dose giving 50% reduction of worm count (Probitmethode), read-out: VD50 in mg/kg p.o.
Description: Die schistosomizide Wirkung der erfindungsgemässen Stoffe kann tierexperimentell wie folgt nachgewiesen werden: • Albino-Mäuse mit einem Gewicht von 15-18 g werden subcutan mit 60 + 5 Cercarien eines Liberia-Stammes von Schistosoma mansoni infiziert. 46 Tage nach der Infektion werden die Tiere einmal mit den zu prüfenden Substanzen peroral behandelt. Pro Substanz und Dosierung werden 5-10 Tiere eingesetzt. Als Kontrolle dienen 10 unbehandelte Tiere. Die Sektion erfolgt nach 19 Tagen, worauf Wurmpaare und einzelne Würmer in Mesenterialvenen, Pfortader und Leber herauspräpariert und gezählt werden. Die vermicide Wirkung zeigt sich in einer reduzierten Zahl lebender Parasiten im Vergleich zu der Zahl in den Kontrolltieren.
Zur Auswertung wird die prozentuale Reduktion der Parasiten bei behandelten Tieren im Vergleich zu unbehandelten Kontrolltieren berechnet. Man bestimmt die VD 50 nach der Probitmethode. Die VD50 ist diejenige vermizide Dosis, welche eine 50-proz. Reduktion der Wurmzahl bewirkt.

In the case of `CN1CCN(CCn2c3ccccc3c(=NNc3nccs3)c3ccccc32)CC1` [10-12-(4-Methyl-1-piperazinyl)äthyl]-9-acridanon-(2-thiazolyl)hydrazon.2,5 HCl], the LD50 [1] is reported as 625 to 1250 mg/kg and the ED50 [2] is reported as 2.4 mg/kg.
`NCCn1c2ccccc2c(=NNc2nccs2)c2ccccc21` [10-(2-Aminoäthyl)-9-acridanon-2-thiazolyl-hydrazon-dihydrochlorid] gave an LD50 [1] of 156 to 312 mg/kg and an ED50 [2] of 2.6 mg/kg.
Compound `c1ccc2c(c1)c(=NNc1nccs1)c1ccccc1n2CCN1CCCCC1` [10-[2-(1-Piperidinyl)äthyl]-9-acridanon-(2-thiazolyl)hydrazon-l,5 HCl] has an LD50 [1] of 312 to 625 mg/kg and an ED50 [2] of 9 mg/kg.
Work on `c1ccc2c(c1)c(=NN=C1NCCS1)c1ccccc1n2CCN1CCCC1` [10-[2-(1-Pyrrolidinyl)äthyl]-9-acridanon-(2-thiazolidinyliden)hydrazon] yielded an LD50 [1] of 156 to 312 mg/kg and an ED50 [2] of 6.2 mg/kg.
For `CC(=O)N1CCN(CCn2c3ccccc3c(=NN=C3NCCS3)c3ccccc32)CC1` [10-[2-(4-Acetyl-1-piperazinyl)äthyl]-9-acridanon-(2-thiazolidinyliden)-hydrazon], the LD50 [1] was 1250 to 2500 mg/kg and the ED50 [2] was 3.4 mg/kg.
In the case of `CC(=O)N1CCN(CCn2c3ccccc3c(=NNc3nccs3)c3ccccc32)CC1` [10-[2-(4-Acetyl-1-piperazinyl)äthyl]-9-acridanon-(2-thiazolyl)hydrazon-dihydrochlorid], the LD50 [1] is reported as 312 to 625 mg/kg and the ED50 [2] is reported as 2.6 mg/kg.
`CN1CCN(CCn2c3ccccc3c(=NN=C3NCCS3)c3ccccc32)CC1` [10-[2-(4-Methyl-1-piperazinyl)äthyl]-9-acridanon-(2-thiazolidinyliden)hydrazon] showed an LD50 [1] of 156 to 312 mg/kg and an ED50 [2] of 4 mg/kg.
With `CN(C)CCn1c2ccccc2c(=NN=C2NCCS2)c2ccccc21` [10-[2-(Dimethylamino)-äthyl]-9-acridanon-(2-thiazolidinyliden)hydrazon] the LD50 [1] was 250 to 500 mg/kg and the ED50 [2] was 6.4 mg/kg.
Work on `CN(C)CCn1c2ccccc2c(=NNc2nccs2)c2ccccc21` [10-[2-(Dimethylamino)äthyl]-9-acridanon-(2-thiazolyl)hydrazon-dihydrochlorid] yielded an LD50 [1] of 312 to 625 mg/kg and an ED50 [2] of 4.9 mg/kg.
With `CCN(CC)CCn1c2ccccc2c(=NNc2nccs2)c2ccccc21` [10-[2-(Diäthylamino)äthylJ-9-acridanon-(2-thiazolyl)hydrazon-dihydrochlorid] the LD50 [1] was greater than 5000 mg/kg and the ED50 [2] was 3.3 mg/kg.
`CCN(CC)CCn1c2ccccc2c(=NN=C2NCCS2)c2ccccc21` [10-[2-(Diäthylamino)äthyl]-9-acridanon-(2-thiazolidinyliden)hydrazon] gave an LD50 [1] of 312 to 625 mg/kg and an ED50 [2] of 9.5 mg/kg.
`CN(C)CCCn1c2ccccc2c(=NN=C2NCCS2)c2ccccc21` [10-[3-(Dimethylamino)propyl]-9-acridanon-(2-thiazolidinyliden)hydrazon] showed an LD50 [1] of 125 to 250 mg/kg and an ED50 [2] of 4.7 mg/kg.
With `CN(C)CCCn1c2ccccc2c(=NNc2nccs2)c2ccccc21.Cl.Cl` [10-[3-(Dimethylamino)propyl]-9-acridanon-(2-thiazolyl)hydrazon-dihydrochlorid] the LD50 [1] was 312 to 625 mg/kg and the ED50 [2] was 3.5 mg/kg.
